Test results: BindingDB's records for doi:10.1016/j.jmb.2006.12.004 (University of Marburg, 2007)

What follows are compounds tested against Aldo-keto reductase family 1 member B1 (Homo sapiens, UniProt P15121) (assay: Enzyme Inhibition Assay). Conditions: pH 6.2; 25 °C.
Method: The in vitro inhibitory activity of the candidate molecules was determined by recording the decrease of the NADPH absorbance upon enzymatic reduction of […]. The absorbance at 340 nm was monitored with a BMG plate reader. The program GraFit (Version 4.0) was used for fitting the IC50 values.

Row | Structure (SMILES) | IC50
1 | O=C(O)CCCc1nc(-c2ccccn2)no1 [4-[3-(pyridin-2-yl)-1,2,4-oxadiazol-5-yl]butanoic acid] | 12.4 µM
2 | O=C(O)CCCc1nc(-c2ccc(Cl)cc2)no1 [Ligand 8] | 17.7 µM
3 | O=C(O)CCCc1nc(-c2cccc([N+](=O)[O-])c2)[n-][o+]1 [Ligand 1] | 0.53 µM
4 | O=C(O)CSc1nnc(-c2ccc([N+](=O)[O-])o2)o1 [2-{[5-(5-nitrofuran-2-yl)-1,3,4-oxadiazol-2-yl]sulfanyl}acetic acid] | 4.1 µM
